According to the supplement of paper PMC4449167:
± gives the standard deviation of the averaged measurements.

Test system: WB-F344
Assay: gap junctional intercellular communication (dye spread) relative to vehicle control (fraction of control); higher = more gap junction communication (less inhibition)
Description: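 Confluent WB-F344 rat liver epithelial cells were pretreated with vehicle, D609 (PC-PLC inhibitor, 50 µM, 20 min), U0126 (MEK1/2 inhibitor, 20 µM, 30 min) or resveratrol (100 µM, 15 min), then exposed to a GJIC-dysregulating chemical at the listed dose and time. GJIC was measured by scalpel loading-dye transfer with Lucifer Yellow (3 min), and the dye-spread area was quantified in ImageJ as a fraction of the vehicle control (FOC). Individual values come from at least 3 independent experiments.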

| SMILES | gap junctional intercellular communication (dose note: (70 uM), pretreatment: D609+GJIC dysreg.) | gap junctional intercellular communication (dose note: (70 uM), pretreatment: GJIC dysreg.) | gap junctional intercellular communication (dose note: (70 uM), pretreatment: RES+GJIC dysreg.) | gap junctional intercellular communication (dose note: (70 uM), pretreatment: U0126+GJIC dysreg.) | gap junctional intercellular communication (dose note: (75 uM), pretreatment: D609+GJIC dysreg.) | gap junctional intercellular communication (dose note: (75 uM), pretreatment: GJIC dysreg.) | gap junctional intercellular communication (dose note: (75 uM), pretreatment: RES+GJIC dysreg.) | gap junctional intercellular communication (dose note: (75 uM), pretreatment: U0126+GJIC dysreg.) | gap junctional intercellular communication (dose note: (90 uM), pretreatment: D609+GJIC dysreg.) | gap junctional intercellular communication (dose note: (90 uM), pretreatment: GJIC dysreg.) | gap junctional intercellular communication (dose note: (90 uM), pretreatment: RES+GJIC dysreg.) | gap junctional intercellular communication (dose note: (90 uM), pretreatment: U0126+GJIC dysreg.) | gap junctional intercellular communication (dose note: (100 uM), pretreatment: D609+GJIC dysreg.) | gap junctional intercellular communication (dose note: (100 uM), pretreatment: GJIC dysreg.) | gap junctional intercellular communication (dose note: (100 uM), pretreatment: RES+GJIC dysreg.) | gap junctional intercellular communication (dose note: (100 uM), pretreatment: U0126+GJIC dysreg.) | gap junctional intercellular communication (pretreatment: D609+GJIC dysreg.) | gap junctional intercellular communication (pretreatment: GJIC dysreg.) | gap junctional intercellular communication (pretreatment: RES+GJIC dysreg.) | gap junctional intercellular communication (pretreatment: U0126+GJIC dysreg.) |
| --- | --- | --- | --- | --- | --- | --- | --- | --- | --- | --- | --- | --- | --- | --- | --- | --- | --- | --- | --- | --- |
| CCCCC/C=C\C/C=C\C/C=C\C/C=C\CCCC(=O)O [Arachidonic acid] (compound abbreviation / co-treatment: AA, exposure (dose, time): 70-100 µM, 15 min) | 0.164 | 0.196 | 0.193 | 0.244 | 0.2 | 0.2 | 0.207 | 0.216 | 0.29 ± 0.055 | 0.279 ± 0.058 | 0.25 ± 0.032 | 0.347 ± 0.025 | 0.196 | 0.193 | 0.189 | 0.199 |  |  |  |  |
| c1cc2ccc3cccc4ccc(c1)c2c34 [Pyrene] (compound abbreviation / co-treatment: Pyr, exposure (dose, time): 70 µM, 10 min) |  |  |  |  |  |  |  |  |  |  |  |  |  |  |  |  | 0.844 ± 0.084 | 0.375 ± 0.078 | 0.802 ± 0.099 | 0.376 ± 0.061 |
